A short description of experiment [1]: Inhibition of alpha-glucosidase (unknown origin) using p-nitrophenyl-alpha-D-glucopyranoside as substrate.
Experiment [2] is filed under the species Homo sapiens. Description: Potency index, ratio of Acarbose IC50 to test compound IC50 for alpha-glucosidase (unknown origin).
For experiment [3], the species on record is Homo sapiens. Description: Competitive inhibition of alpha-glucosidase (unknown origin) assessed as increase in Km with constant Vmax by Lineweaver-Burk plot analysis.
The nature of experiment [4]: Competitive inhibition of alpha-glucosidase (unknown origin) by Dixon plot analysis. Set-up: species or system Homo sapiens.
A short description of experiment [5]: Inhibition of Saccharomyces cerevisiae alpha-glucosidase assessed as decrease in release of p-nitrophenol using pNPG as substrate preincubated for 2 hrs followed by substrate addition by spectrophotometric method.
Experiment [6] is described as follows: Inhibition of alpha-glucosidase (unknown origin). Set-up: species or system Homo sapiens.

Calls of active or inactive are those of the source. No cut-off for these calls is given here.

One may read the IC50 as the midpoint of a concentration-inhibition curve. In general, Ki refers to the equilibrium dissociation constant of an inhibitor or competing ligand from its target.

Consider `O=c1c(O)c(-c2ccc(O)cc2)oc2cc(O)cc(O)c12` [KAEMPFEROL], for which, in experiment [1] (read-out: IC50), the IC50 worked out at 420 µM.

In the case of `COC1(c2ccc(O)c(O)c2)Oc2cc(O)cc(O)c2C1=O` (centres undefined), in the experiment filed under Homo sapiens [2], the Ratio IC50 came to 457. The inhibition result in the experiment listed under Homo sapiens [3] was “Active”. Also, in experiment [4], the Ki worked out at 709 nM. The 50% inhibitory concentration (IC50) in experiment [1] (read-out: IC50) is 1.8 µM.

Take `COc1cc(OC)c2c(c1)OC(OC)(c1ccc(OC)c(OC)c1)C2=O` (centres undefined): the IC50 entry in experiment [1] is recorded as “Not Active”.

For the molecule `O=c1cc(-c2ccc(O)cc2)oc2cc(O)cc(O)c12` [APIGENIN], the IC50 in experiment [5] was 365 µM.

In the case of `COc1cc(O)c2c(=O)c(O)c(-c3ccc(O)cc3)oc2c1` [RHAMNOCITRIN], in experiment [1] (read-out: IC50), the concentration for half-maximal inhibition (IC50) is 731 µM.

`COc1ccc(-c2oc3cc(O)cc(O)c3c(=O)c2O)cc1` [KAEMPFERIDE] gave an IC50 in experiment [6] of 647 µM.

The record behind these values is ChEMBL document CHEMBL4699626, “Potential α-glucosidase inhibitor from Hylotelephium erythrostictum” (Bioorg Med Chem Lett, 2020).
